Measurements published in PubChem BioAssay AID179 (DTP/NCI, 2004).
The source made the active and inactive calls.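 Rule for the calls: active = compounds giving half or more protection of infected cells from virus-caused growth loss, again on retest; inactive = the rest.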

Tested on: CEM cells HIV-1 protection, formazan growth assay
Test: NCI AIDS Antiviral Assay
Details: for IC50: measured here: growth of uninfected CEM cells
In short: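 CEM (human) cells, HIV-1 infected vs uninfected, 5-point dosing, formazan growth read-out. Retest threshold 50% protection.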

Compound | EC50 | IC50 | outcome
Cc1cc2cc3c(=O)[nH]c(=O)cc-3n(CC(O)C(O)C(O)CO)c2cc1C (stereo not given) | > 200 µM | > 200 µM | 
Cc1ccc(N=Nc2c(N)nn3cc4c(nc23)CCC4)cc1 | > 200 µM | > 200 µM | 
COc1cc(-c2nccc3cc(OC)c(OC)cc23)ccc1O |  |  | inactive
O=C(NCCCNCCN1C(=O)c2cccc3cc([N+](=O)[O-])cc(c23)C1=O)c1cc(-c2ccccc2)nc2ccccc12 | > 200 µM | 1.05 µM | 
O=c1c2nn3c(=O)n(-c4ccc(Cl)cc4)c(=O)c3nn2c(=O)n1-c1ccc(Cl)cc1 | > 200 µM | > 200 µM | 
CC(=O)c1cccc(NC(=O)Nc2cccc(C)n2)c1 | > 56.2 µM | 6.92 µM | 
COc1c2oc(=O)ccc2c(Br)c2c(Br)c(Br)oc12 | > 102 µM | 47.9 µM | 
CCOC(=O)C(=CNC(=S)Nc1ccc(Cl)c(Cl)c1)C(=O)OCC | > 200 µM | 34.7 µM | 
C=C(C)[C@H]1CC[C@@]2(C)C(C1)[C@H](C)CC[C@@H]2O (stereo not given in full) |  |  | inactive
COC1/C=C\OC2(C)Oc3c(C)c(O)c4c(O)c(cc(OCC(=O)N(C)Cc5ccccc5)c4c3C2=O)NC(=O)/C(C)=C\C=C/C(C)C(O)C(C)C(O)C(C)C(OC(C)=O)C1C (stereo not given) | > 200 µM | 39.8 µM | 
c1ccc(CSCCC(SCc2ccccc2)SCc2ccccc2)cc1 | > 200 µM | > 200 µM | 
Cn1c(=O)c2nc3sc4ccccc4c(=N)n3c2n(C)c1=O | > 41.7 µM | > 41.7 µM | 
N#C/C(=C\c1cc(O)c(O)c([N+](=O)[O-])c1)C(=O)NCCCNC(=O)/C(C#N)=C/c1cc(O)c(O)c([N+](=O)[O-])c1 | > 200 µM | 72.4 µM | 
CCCSS[C@H]1NC(=O)[C@H]1NC(=O)COc1ccccc1 | > 21.9 µM | > 21.9 µM | 
CC(=O)OCC1C(C(C)OC(C)=O)CCC2C1CCC1(C)C(OC(C)=O)CCC21 (stereo not given) | > 20.4 µM | 16.6 µM | 
CCOC(=O)/C(=C\c1ccc(Br)cc1)[Se]c1ccccc1 | > 63.1 µM | > 63.1 µM | 
C/C=C(\C)c1cc(O)c(C)c2c1Oc1cc(O)c(Cl)c(C)c1C(=O)O2 |  |  | inactive

Compound | EC50 | IC50 | outcome
O=[N+]([O-])c1ccc(/C=C/c2csnn2)cc1 | > 562 µM | 229 µM | 
O=C1/C(=C\c2cccc(Oc3ccccc3)c2)SC(c2ccccc2)N1c1ccc(Cl)cc1 (stereo not given) | > 20 µM | 1.29 µM | 
COC1=C(N)C(=O)c2ncccc2C1=O |  |  | inactive
O=c1oc2ccccc2n1CCN1CCCCC1 | > 200 µM | > 200 µM | 
CC1=NC(C(=O)O)Cc2c1[nH]c1ccccc21 (stereo not given) |  |  | inactive
Cc1c2c(n(CC(c3ccccc3)c3ccccc3)c1C)NN=C(C#N)S2(=O)=O | > 200 µM | > 100 µM | 
Cc1ccc(OP2(=O)Nc3ccccc3S2)cc1 (stereo not given) | > 468 µM | 25.7 µM | 
COc1ccc(/C(C)=N/NC(N)=O)cc1 | > 174 µM | > 174 µM | 
CC1(C)OC2C(=O)OC(COCc3ccccc3)C2O1 (stereo not given) | > 36.3 µM | > 36.3 µM | 
[N-]=[N+]=NC1OC(=O)C(Cl)=C1N=P(c1ccccc1)(c1ccccc1)c1ccccc1 (stereo not given) | > 69.2 µM | 7.94 µM | 
N#Cc1c(-c2ccco2)c2c(n(C3OC(CO)C(O)C(O)C3O)c1=S)CCCC2 (stereo not given) | > 200 µM | 110 µM | 
CCOP(=O)(OCC)[C@]12C[C@@H](C)C=C[C@H]1COC2=O | > 200 µM | 135 µM | 
N#Cc1c(Cl)nc2ccccc2c1N=[N+]=[N-] | > 200 µM | 0.912 µM | 
CN(C)c1cccc2c(S(=O)(=O)NCC(=O)O)cccc12 |  |  | inactive
CC(C)(C)CC(C)(C)c1ccc(OCCO)cc1 |  |  | inactive
O=C1C=C(NC(=O)c2ccc(Cl)cc2)c2ncccc2C1=O |  |  | inactive
C[C@]12CC[C@H]3[C@@H](CC[C@]4(O)C[C@@H](O)CC[C@]34C=O)[C@@]1(O)CC[C@@H]2C1=CC(=O)OC1 | > 2 µM | 0.24 µM | 
